Like-named read-outs stand apart in the source and are kept apart here.
Target: T1, Recombinant human TPH1 (MBP tagged) (Homo sapiens, UniProt P17752)
T1 construct: cloning full length human TPH1 cDNA in to a bacterial pMAL-c5E expression vector; made in house; host or cells: E. coli BL21 (DE3)
T1 sequence (P17752 1-444): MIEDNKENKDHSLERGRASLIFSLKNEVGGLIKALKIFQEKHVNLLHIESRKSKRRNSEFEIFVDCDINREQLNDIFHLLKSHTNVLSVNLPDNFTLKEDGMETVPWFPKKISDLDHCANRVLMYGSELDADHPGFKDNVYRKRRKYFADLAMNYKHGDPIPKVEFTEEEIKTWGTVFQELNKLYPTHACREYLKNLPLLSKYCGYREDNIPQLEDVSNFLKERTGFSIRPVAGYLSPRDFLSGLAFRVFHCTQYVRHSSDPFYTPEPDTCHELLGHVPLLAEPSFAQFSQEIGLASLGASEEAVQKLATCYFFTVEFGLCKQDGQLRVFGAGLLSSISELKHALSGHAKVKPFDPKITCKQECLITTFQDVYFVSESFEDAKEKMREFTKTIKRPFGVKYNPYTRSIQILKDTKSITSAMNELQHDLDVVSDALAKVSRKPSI
Assay: TPH1 in vitro inhibition assay (kinetic fluorescence)
Type: biochemical
In short: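 Final mix: 15 nM MBP-TPH1, 30 μM Trp, 36 μM 6-methyltetrahydropterin, 25 μM ferrous ammonium sulfate, 50 mM MES pH 7.1, 1% DMSO, room temperature.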

[1] = TPH1 Range (TPH1 inhibition IC50)
[2] = read-out: TPH1 Range (TPH1 inhibition IC50)

IC50 [1]	IC50 [2]	Compound
	50 to 300 nM	Nc1nc(O[C@H](c2ccc(-c3ccc4ncnn4c3)cc2)C(F)(F)F)cc(N2CCC3(CC2)CN[C@H](C(=O)O)C3)n1 [Example 55l, (S)-8-(6-((R)-1-(4-([1,2,4]triazolo[1,5-a]pyridin-6-yl)phenyl)-2,2,2-trifluoroethoxy)-2-aminopyrimidin-4-yl)-2,8-diazaspiro[4.5]decane-3-carboxylic acid]
	< 50 nM	CCOc1ccc(-c2ccc([C@@H](Oc3cc(N4CCC5(CC4)CN[C@H](C(=O)O)C5)nc(N)n3)C(F)(F)F)c(-n3ccc(C)n3)c2)cc1F [Example 1bn, (S)-8-(2-amino-6-((R)-1-(4′-ethoxy-3′-fluoro-3-(3-methyl-1H-pyrazol-1-yl)-[1,1′-biphenyl]-4-yl)-2,2,2-trifluoroethoxy)pyrimidin-4-yl)-2,8-diazaspiro[4.5]decane-3-carboxylic acid]
	50 to 300 nM	Nc1nc(O[C@H](c2ccc(-c3ccc(S(N)(=O)=O)cc3)cc2)C(F)(F)F)cc(N2CCC3(CC2)CN[C@H](C(=O)O)C3)n1 [Example 55dj, (S)-8-(2-amino-6-((R)-2,2,2-trifluoro-1-(4′-sulfamoyl-[1,1′-biphenyl]-4-yl)ethoxy)pyrimidin-4-yl)-2,8-diazaspiro[4.5]decane-3-carboxylic acid]
	< 50 nM	CCOc1cc(-c2ccc([C@@H](Oc3cc(N4CCC5(CC4)CN[C@H](C(=O)O)C5)nc(N)n3)C(F)(F)F)c(-n3ccc(C)n3)c2)ccc1F [Example 1bg, (S)-8-(2-amino-6-((R)-1-(3′-ethoxy-4′-fluoro-3-(3-methyl-1H-pyrazol-1-yl)-[1,1′-biphenyl]-4-yl)-2,2,2-trifluoroethoxy)pyrimidin-4-yl)-2,8-diazaspiro[4.5]decane-3-carboxylic acid]
	< 50 nM	COc1cc(-c2ccc([C@@H](Oc3cc(N4CCC5(CC4)CN[C@H](C(=O)O)C5)nc(C)n3)C(F)(F)F)c(-n3ccc(C)n3)c2)ccn1 [Example 29a, (S)-8-(2-methyl-6-((R)-2,2,2-trifluoro-1-(4-(2-methoxypyridin-4-yl)-2-(3-methyl-1H-pyrazol-1-yl)phenyl)ethoxy)pyrimidin-4-yl)-2,8-diazaspiro[4.5]decane-3-carboxylic acid]
	3000 to 10000 nM	CC(C)Oc1ccc(-c2cc(Cl)ccc2[C@@H](Oc2cc(N3CCC4(CC3)CN[C@H](C(=O)O)C4)nc(N)n2)C(F)(F)F)cc1F [Example 34al, (S)-8-(2-amino-6-((R)-1-(5-chloro-3′-fluoro-4′-isopropoxy-[1,1′-biphenyl]-2-yl)-2,2,2-trifluoroethoxy)pyrimidin-4-yl)-2,8-diazaspiro[4.5]decane-3-carboxylic acid]
	300 to 3000 nM	Nc1nc(O[C@H](c2ccc(-c3cccnc3)cc2)C(F)(F)F)cc(N2CCC3(CC2)CN[C@H](C(=O)O)C3)n1 [Example 55aw, (S)-8-(2-amino-6-((R)-2,2,2-trifluoro-1-(4-(pyridin-3-yl)phenyl)ethoxy)pyrimidin-4-yl)-2,8-diazaspiro[4.5]decane-3-carboxylic acid]
	300 to 3000 nM	Nc1nc(O[C@H](c2ccc(-c3ccc(OC(F)(F)F)cc3)cc2)C(F)(F)F)cc(N2CCC3(CC2)CN[C@H](C(=O)O)C3)n1 [Example 55cm, (S)-8-(2-amino-6-((R)-2,2,2-trifluoro-1-(4′-(trifluoromethoxy)-[1,1′-biphenyl]-4-yl)ethoxy)pyrimidin-4-yl)-2,8-diazaspiro[4.5]decane-3-carboxylic acid]
< 50 nM		COc1cccc(-c2cc(Cl)ccc2[C@@H](Oc2cc(N3CCC4(CC3)CN[C@H](C(=O)O)C4)nc(N)n2)C(F)(F)F)c1 [Example 34y, (S)-8-(2-amino-6-((R)-1-(5-chloro-3′-methoxy-[1,1′-biphenyl]-2-yl)-2,2,2-trifluoroethoxy)pyrimidin-4-yl)-2,8-diazaspiro[4.5]decane-3-carboxylic acid]
	< 50 nM	Cc1ccn(-c2cc(-c3ccc(OC(F)(F)F)c(C)c3)ccc2[C@@H](Oc2cc(N3CCC4(CC3)CN[C@H](C(=O)O)C4)nc(N)n2)C(F)(F)F)n1 [Example 1bq, (S)-8-(2-amino-6-((R)-2,2,2-trifluoro-1-(3′-methyl-3-(3-methyl-1H-pyrazol-1-yl)-4′-(trifluoromethoxy)-[1,1′-biphenyl]-4-yl)ethoxy)pyrimidin-4-yl)-2,8-diazaspiro[4.5]decane-3-carboxylic acid]
	50 to 300 nM	Nc1nc(O[C@H](c2ccc(Cl)cc2-n2ccc(C(F)(F)F)n2)C(F)(F)F)cc(N2CCC3(CC2)CN[C@H](C(=O)O)C3)n1 [Example 10p, (S)-8-(2-amino-6-((R)-1-(4-chloro-2-(3-(trifluoromethyl)-1H-pyrazol-1-yl)phenyl)-2,2,2-trifluoroethoxy)pyrimidin-4-yl)-2,8-diazaspiro[4.5]decane-3-carboxylic acid]
	< 50 nM	CCOc1cc(-c2cc(Cl)ccc2[C@@H](Oc2cc(N3CCC4(CC3)CN[C@H](C(=O)O)C4)nc(N)n2)C(F)(F)F)ccc1F [Example 34bp, (S)-8-(2-amino-6-((R)-1-(5-chloro-3′-ethoxy-4′-fluoro-[1,1′-biphenyl]-2-yl)-2,2,2-trifluoroethoxy)pyrimidin-4-yl)-2,8-diazaspiro[4.5]decane-3-carboxylic acid]
	< 50 nM	Cc1ccn(-c2ccc(-c3ccc(CCC(=O)O)cc3)cc2[C@@H](Oc2cc(N3CCC4(CC3)CN[C@H](C(=O)O)C4)nc(N)n2)C(F)(F)F)n1 [Example 19k, (S)-8-(2-amino-6-((R)-1-(4′-(2-carboxyethyl)-4-(3-methyl-1H-pyrazol-1-yl)-[1,1′-biphenyl]-3-yl)-2,2,2-trifluoroethoxy)pyrimidin-4-yl)-2,8-diazaspiro[4.5] decane-3-carboxylic acid]
	300 to 3000 nM	Nc1nc(O[C@H](c2ccc(-c3ccc4ccc(=O)oc4c3)cc2)C(F)(F)F)cc(N2CCC3(CC2)CN[C@H](C(=O)O)C3)n1 [Example 55ae, (S)-8-(2-amino-6-((R)-2,2,2-trifluoro-1-(4-(2-oxo-2H-chromen-7-yl)phenyl)ethoxy)pyrimidin-4-yl)-2,8-diazaspiro[4.5]decane-3-carboxylic acid]
	< 50 nM	Cc1ccn(-c2cc(-c3ccccc3)ccc2[C@@H](Oc2cc(N3CCC4(CC3)CN[C@H](C(=O)O)C4)nc(N)n2)C(F)(F)F)n1 [Example 1u, (S)-8-(2-amino-6-((R)-2,2,2-trifluoro-1-(3-(3-methyl-H-pyrazol-1-yl)-[1,1′-biphenyl]-4-yl)ethoxy)pyrimidin-4-yl)-2,8-diazaspiro[4.5]decane-3-carboxylic acid]
50 to 300 nM		CCOc1ccc(-c2cc(Cl)ccc2[C@@H](Oc2cc(N3CCC4(CC3)CN[C@H](C(=O)O)C4)nc(N)n2)C(F)(F)F)cc1Cl [Example 34ai, (S)-8-(2-amino-6-((R)-1-(3′,5-dichloro-4′-ethoxy-[1,1′-biphenyl]-2-yl)-2,2,2-trifluoroethoxy)pyrimidin-4-yl)-2,8-diazaspiro[4.5]decane-3-carboxylic acid]
	50 to 300 nM	CN1C(=O)CCc2cc(-c3ccc([C@@H](Oc4cc(N5CCC6(CC5)CN[C@H](C(=O)O)C6)nc(N)n4)C(F)(F)F)cc3)ccc21 [Example 55aj, (S)-8-(2-amino-6-((R)-2,2,2-trifluoro-1-(4-(1-methyl-2-oxo-1,2,3,4-tetrahydroquinolin-6-yl)phenyl)ethoxy)pyrimidin-4-yl)-2,8-diazaspiro[4.5]decane-3-carboxylic acid]
	< 50 nM	CCOC(=O)c1ccc(-c2ccc([C@@H](Oc3cc(N4CCC5(CC4)CN[C@H](C(=O)O)C5)nc(C)n3)C(F)(F)F)c(-n3ccc(C)n3)c2)cc1 [Example 29i, (S)-8-(6-((R)-1-(4′-(ethoxycarbonyl)-3-(3-methyl-1H-pyrazol-1-yl)-[1,1′-biphenyl]-4-yl)-2,2,2-trifluoroethoxy)-2-methylpyrimidin-4-yl)-2,8-diazaspiro[4.5]decane-3-carboxylic acid]
	300 to 3000 nM	CS(=O)(=O)c1ccc(-c2ccc([C@@H](Oc3cc(N4CCC5(CC4)CN[C@H](C(=O)O)C5)nc(N)n3)C(F)(F)F)cc2)cc1 [Example 55cv, (S)-8-(2-amino-6-((R)-2,2,2-trifluoro-1-(4′-(methylsulfonyl)-[1,1′-biphenyl]-4-yl)ethoxy)pyrimidin-4-yl)-2,8-diazaspiro[4.5]decane-3-carboxylic acid]
	300 to 3000 nM	Nc1nc(O[C@H](c2ccc(-c3ccc4cnoc4c3)cc2)C(F)(F)F)cc(N2CCC3(CC2)CN[C@H](C(=O)O)C3)n1 [Example 55g, (S)-8-(2-amino-6-((R)-1-(4-(benzo[d]isoxazol-6-yl)phenyl)-2,2,2-trifluoroethoxy)pyrimidin-4-yl)-2,8-diazaspiro[4.5]decane-3-carboxylic acid]
	50 to 300 nM	Cc1ccn(-c2cc(-c3ccc(F)c(C(F)(F)F)c3)ccc2[C@@H](Oc2cc(N3CCC4(CC3)CN[C@H](C(=O)O)C4)nc(N)n2)C(F)(F)F)n1 [Example 1aw, (S)-8-(2-amino-6-((R)-2,2,2-trifluoro-1-(4′-fluoro-3-(3-methyl-1H-pyrazol-1-yl)-3′-(trifluoromethyl)-[1,1′-biphenyl]-4-yl)ethoxy)pyrimidin-4-yl)-2,8-diazaspiro[4.5]decane-3-carboxylic acid]

Compound	IC50 [1]	IC50 [2]
Nc1nc(O[C@H](c2ccc(Cl)cc2-c2ccc(F)c(F)c2)C(F)(F)F)cc(N2CCC3(CC2)CN[C@H](C(=O)O)C3)n1 [Example 34aw, (S)-8-(2-amino-6-((R)-1-(5-chloro-3′,4′-difluoro-[1,1′-biphenyl]-2-yl)-2,2,2-trifluoroethoxy)pyrimidin-4-yl)-2,8-diazaspiro[4.5]decane-3-carboxylic acid]	< 50 nM	

From patent publication US11759462B2, “Spirocyclic compounds as tryptophan hydroxylase inhibitors” (priority 2013, dated 2023)
